Laboratory results taken from US20100068297A1, “Antimicrobial Composition” (NATURE THERAPEUTICS LIMITED, priority 2006, published 2010).
Several values for one entry are separate records, joined by “and”; a condition that tells them apart may be missing. Equal values may be shown once.

Experiments:
[1] = test system: Ps. aeruginosa; assay: Tea extracts with metal salts, suspension assay 30 min; type: cell-based, Pseudomonas aeruginosa; conditions: Lambda buffer control
Procedure: (§1) Tea infusions were prepared as previously with boiling sterilized distilled water. After 10 minutes, the extracts are removed from the beaker into sterilized universal tubes. The pH of these extracts was neutralized using a 1 M NaOH solution. The extracts are refrigerated, used within 4 days and without further treatment. Overnight cultures of the Gram-positive strain (Staph. aureus) and the Gram-negative strains (Ps. aeruginosa and Prot. mirabilis) were suspended in Ringers solution to a turbidity equivalent to 0.5 McFarland (1.5×10^8 CFU/ml). Metal salts were added to the optimum tea extracts immediately before the assay was conducted. […] The appropriate bacterial dilution was prepared and 50 μl of that was placed in a sterile Eppendorf micro-centrifuge tube with a 100 μl of the extract/metal salt solution. […] Serial dilutions were prepared in Ringer's solution, 10 μL aliquots of each dilution were spotted onto nutrient agar plates and incubated aerobically for 24 hours at 37° C. Each assay was conducted in triplicate.

[2] = test system: E. coli; assay: Suspension assay, 30 minutes exposure, viable count; type: cell-based; conditions: no Vitamin C
Procedure: All reagents were purchased from Sigma-Aldrich (Poole, Dorset) and distilled water was used throughout. Overnight cultures on nutrient agar were then suspended in Ringer's solution (Oxoid, U.K.) to a turbidity equivalent to 0.5 McFarland (1.5×10^8 CFU/ml). […] The final solution was protected from light (Stewart et al. 1998. J. Appl Microbiol 84:777-783). The appropriate bacterial dilution was prepared and 50 μl placed in a sterile Eppendorf micro-centrifuge tube with a 100 μl of the extract/metal salt solution. […] Serial dilutions were prepared in Ringer's solution (10^−5), 10 μl of each dilution is spotted on nutrient agar plate and incubated for 24 hours at 37° C. Each assay was conducted in triplicate. The assay was carried out as described above with the following addition: […]

[3] = test system: Staph. aureus; assay: Tea extracts with metal salts, suspension assay 30 min; type: cell-based, Staphylococcus aureus; conditions: Lambda buffer control
Procedure: as §1

[4] = test system: ESβL Pseudomonas aeruginosa clinical isolates; assay: Suspension test, aqueous preparations, 30 minutes; type: cell-based; conditions: no Vitamin C, nine isolates, listed as Cu(II)
Procedure: P. aeruginosa isolates were removed from the freezer and first passaged on nutrient agar twice before use. Overnight cultures on nutrient agar were then suspended in Ringer's solution (Oxoid, U.K.) to a turbidity equivalent to 0.5 McFarland (1.5×10^8 CFU/ml).
The appropriate bacterial dilution was prepared and 50 μl placed in a sterile Eppendorf micro-centrifuge tube with a 100 μl of the extract/metal salt solution. After exposure of the bacteria for 30 minutes at room temperature, the activity of the bactericidal agent was neutralized by adding an equal volume of 2% (v/v) Tween-80 (Sigma Chemical Co., UK) in Lambda buffer (Stewart et al. 1998). Serial dilutions were prepared in Ringer's solution (10^−5), 10 μl of each dilution is spotted on nutrient agar plate and incubated for 24 hours at 37° C. Each assay was conducted in triplicate.
The assay was carried out as described above with the following addition: Vitamin C was added to the metal ion solution immediately prior to mixing with the PRE. Aliquots of Vitamin C were made to give final metal ion:Vitamin C ratios (and Vitamin C concentrations) of 1:1 (4.8 mM), 1:5 (24 nM), 1:20 (96 mM) (metal salt:Vitamin C). 700 μl of this solution was then added to PRE.

[5] = test system: PVL positive cMRSA; assay: Suspension test, 2 hours, clinical isolates; type: cell-based, Staphylococcus aureus; conditions: 2 hours exposure, 10 clinical isolates
Procedure: Clinical isolates of methicillin resistant (n=10), methicillin sensitive (n=10) Staphylococcus aureus (MRSA and MSSA) and Panton-Valentine Leukocidin producing cMRSA (n=10) were used in the study. The MRSA and MSSA isolates were collected from the Royal Marsden Hospital (London, UK) and the cMRSA isolates were collected from the Devon and Exeter Hospital (UK). The isolates were cultured over night on nutrient agar (Oxoid), aerobically at 37° C. and then frozen in cyrovials (Pro-labs) at −80° C. until required. Prior to use all isolates were passaged twice on nutrient agar aerobically at 37° C. In all assays culture were prepared by using overnight cultures on nutrient agar that were then suspended in Ringer's solution (Pro-Lab, U.K.) to a turbidity equivalent to 0.5 McFarland (1.5×10^8 cfu ml^−1).
Briefly, overnight cultures on nutrient agar were then suspended in Ringer's solution (Oxoid, U.K.) to a turbidity equivalent to 0.5 McFarland (1.5×10^8 CFU/ml).
The appropriate bacterial dilution was prepared and 50 μL it placed in a sterile Eppendorf micro-centrifuge tube with a 100 μL of the extract/metal salt solution. Following treatment of the bacteria for 2 hours at room temperature, the activity of the bactericidal agent was neutralized by adding an equal volume of 2% (v/v) Tween-80 (Sigma Chemical Co., UK) in Lambda buffer. […]

[6] = test system: MRSA; assay: Micro-dilution MIC, alone and in combination; type: cell-based, Staphylococcus aureus; conditions: each table line is a group of isolates; 24 h
Procedure: The plates were prepared as follows, 50 μl of four-times strength Iso-Sensitest broth was added to the first row of wells and 50 μl of double strength Iso-Sensitest broth was added to all remaining wells. To the first row of wells 50 μl of the PRE was added and mixed, 50 μl of broth from row A was transferred to row B and mixed, this process was continued to row E Finally, 50 μl of broth was removed from well F and discarded. Then the overnight cultures were suspended in Ringers solution to a turbidly of 0.5 McFarland (1.5×10^8 cfu/ml). 50 μl of suspension were added to well A (final concentration of PRE in well A=200 mg/ml) through to G All samples were carried out in Triplicate. All plates were incubated at 37° C. for 24 hours. After incubation 10 μl of broth from each well was spotted onto nutrient agar and incubated at 37° C. for 24 hours. After incubation the plates were examined to determine breakpoints by the presence or absence of growth.

[7] = test system: Pseudomonas aeruginosa; assay: In vitro bactericidal assay, control strain; type: cell-based; conditions: metal ion added to PRE
Procedure: The control strain was Pseudomonas aeruginosa for standard experimentation, ie determining optimal preparations.
Growth conditions: on nutrient agar provided by Oxoid Ltd for 24 hrs at 37° C.
The inventor established a functional in vitro bactericidal assay to screen a variety of formulations (cream, aqueous and ointment). This assay involved adding 0.5 g of ointment to 10 ml of water and vortexing prior to a standard suspension test using 50 microlitres of bacterial cell suspension to a turbidity of 0.5 McFarland solution (bacterial cell suspension equal to 1.5×10^8) plus 100 microlitres of the ointment solution. After incubation in the dark at room temperature for 30 mins, serial dilutions (from 10^−1 to 10^−5) were carried out on nutrient agar.
In terms of mechanisms of action, the preference for using metal ions in the reduced state led to the incorporation of studies using reductants to stabilize this oxidation state, and prolong and enhance activity. Thus, the reductant Vitamin C was added in three different doses after pre-incubating the PRE/metal ions mixtures for 30 minutes, and the results are shown in FIG. 2.
The longer term activities of the PRE:metal salt(s) mixtures were investigated after a period of 24 and 48 hours, and the results are shown in FIG. 4. […] The results shown are for one system only as an example.

[8] = test system: Prot. mirabilis; assay: Tea extracts with metal salts, suspension assay 30 min; type: cell-based, Proteus mirabilis; conditions: Lambda buffer control
Procedure: as §1

| Structure (SMILES) | bactericidal efficacy, reduction in CFU/mL (factor) [1] | reduction of surviving population / growth, factor compared to the buffer [2] | bactericidal efficacy, reduction in CFU/mL (factor) [3] | reduction in growth (mean values) [4] | isolates in which the 10^3 log reduction in growth was observed [5] [%] | reduction in growth [5] | MIC, agent alone [6] | activity of the metal ion solution upon addition to PRE [7] | bactericidal efficacy, reduction in CFU/mL (factor) [8] |
| --- | --- | --- | --- | --- | --- | --- | --- | --- | --- |
| O=S(=O)([O-])[O-].[Cu+2] [CuSO4, copper (II) sulfate] | 10^2 | 10^4 | 10^4 | ~10^1 log10 and ~10^2 log10 | 60 | 10^3 log10 | 3125 µg/mL and 1563 µg/mL | highest activities | 10^2 |
| O=S(=O)([O-])[O-].[Fe+2] [FeSO4, iron (II) sulfate] | 10^3 | – | poor efficacy | – | – | – | – | highest activities | 10^3 |
| O=S(=O)([O-])[O-].[Mn+2] [MnSO4] | minimal | – | poor efficacy | – | – | – | – | little or no activity | minimal |
| O=S(=O)([O-])[O-].[Zn+2] [ZnSO4] | – | – | – | – | – | – | – | little or no activity | – |
